Experimental findings from patent publication US20220267260A1, “COMPOUNDS CONTAINING A SULFONIC GROUP AS KAT INHIBITORS” (Epizyme, Inc., priority 2016, published 2022) are described below.

For experiment [1], the target named is T1, KAT6A (Homo sapiens, UniProt Q92794).
T1 construct: His-TEV tag (N, cleaved yes); made in house
Description: KAT6A enzyme inhibition assay (SAMDI mass spectrometry). The class given is biochemical. As to conditions: His-TEV-KAT6A 501-784 enzyme construct.

Experiment [2] concerns the target T2, KAT5 (Homo sapiens, UniProt Q92993).
T2 construct: His-TEV tag (N, cleaved yes); made in house
Description: KAT5 enzyme inhibition assay (SAMDI mass spectrometry). The class given is biochemical. As to conditions: His-TEV-FL KAT5-Flag enzyme construct.

The structures appear in SMILES notation. Structures can show the parent of a compound that is named as a salt. Where only a bound is given, the exact number is not on record here.

T2 sequence (Q92993 with tags, fused parts or gaps): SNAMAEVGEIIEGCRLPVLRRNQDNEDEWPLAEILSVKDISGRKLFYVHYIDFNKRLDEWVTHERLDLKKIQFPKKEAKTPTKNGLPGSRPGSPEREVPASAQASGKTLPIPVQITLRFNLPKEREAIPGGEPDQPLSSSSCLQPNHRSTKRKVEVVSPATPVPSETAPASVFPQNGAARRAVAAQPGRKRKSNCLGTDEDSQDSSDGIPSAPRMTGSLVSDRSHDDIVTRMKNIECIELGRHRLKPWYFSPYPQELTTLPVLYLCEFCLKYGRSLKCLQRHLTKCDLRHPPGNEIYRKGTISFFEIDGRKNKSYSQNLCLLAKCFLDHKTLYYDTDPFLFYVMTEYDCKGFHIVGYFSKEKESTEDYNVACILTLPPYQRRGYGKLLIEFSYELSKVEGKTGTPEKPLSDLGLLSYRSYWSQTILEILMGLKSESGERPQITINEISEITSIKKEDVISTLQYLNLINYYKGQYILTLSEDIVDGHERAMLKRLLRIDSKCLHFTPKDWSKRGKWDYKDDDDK
T1 sequence (Q92794 with tags, fused parts or gaps): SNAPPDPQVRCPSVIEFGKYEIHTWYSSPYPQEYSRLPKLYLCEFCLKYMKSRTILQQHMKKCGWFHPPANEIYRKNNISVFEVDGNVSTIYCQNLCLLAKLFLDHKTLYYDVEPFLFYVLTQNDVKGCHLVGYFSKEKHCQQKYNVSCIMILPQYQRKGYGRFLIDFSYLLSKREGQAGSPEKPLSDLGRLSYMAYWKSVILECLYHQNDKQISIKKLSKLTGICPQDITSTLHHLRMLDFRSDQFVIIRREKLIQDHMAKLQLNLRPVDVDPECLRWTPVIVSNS

On to `Cc1cc(-c2ccccc2)cc(C(=O)NNS(=O)(=O)C2CNC2)c1F` [Compound I-120, N′-(4-Fluoro-5-methyl-[1,1′-biphenyl]-3-carbonyl)azetidine-3-sulfonohydrazide hydrochloride], for which the IC50 in experiment [1] and in experiment [2] was greater than 100 µM throughout.
For `Cc1cc(C)c(F)c(C(=O)NNS(=O)(=O)C2CCCCC2)c1` [Compound I-347], the values for the IC50 in experiment [1] and in experiment [2] were greater than 100 µM and 10 to 50 µM, respectively.
The matching figures for `Cc1cc(-c2ccccc2)nc(C(=O)NNS(=O)(=O)C2CCCCC2)c1F` [Compound I-483]: greater than 100 µM and 50 to 100 µM.
As for `Cn1ccc2c(C(=O)NNS(=O)(=O)c3ccccc3)cc(-c3ccccc3)cc21` [Compound I-17], the results for the 50% inhibitory concentration (IC50) in experiment [1] and in experiment [2] were greater than 100 µM and 50 to 100 µM, respectively.
Turning to `Cc1cc(-c2ccccc2)cc(C(=O)NNS(=O)(=O)C2CCN(Cc3ccccc3)C2)c1F` (stereo not drawn) [Compound I-33], the half-inhibitory concentration (IC50) in experiment [1] and in experiment [2] was 10 to 50 µM each time.
As to `Cc1c(F)cc(-c2ccccc2)cc1C(=O)NNS(=O)(=O)c1ccccc1` [Compound I-205], the IC50 in experiment [1] is 50 to 100 µM; in experiment [2] it was greater than 100 µM.
For the molecule `Cc1cc(-c2ccccc2)cc(C(=O)N2CC(S(=O)(=O)c3ccccc3)C2)c1F` [Compound I-199], the IC50 in experiment [1] and in experiment [2] was greater than 100 µM throughout.
For `COCCN1CCCC(S(=O)(=O)NNC(=O)c2cc(-c3ccccc3)cc(C)c2F)C1` (stereo not drawn) [Compound I-101], the IC50 in experiment [1] and in experiment [2] was 10 to 50 µM in each case.
In the case of `COCCC(=O)N1CCCC(S(=O)(=O)NNC(=O)c2cc(-c3ccccc3)cc(C)c2F)C1` (stereo not drawn) [Compound I-112], the IC50 in experiment [1] and in experiment [2] was 10 to 50 µM throughout.
Turning to `CCS(=O)(=O)NNC(=O)c1c(F)ccc(-c2ccccc2)c1C` [Compound I-228], the IC50 in experiment [1] and in experiment [2] was greater than 100 µM throughout.
Consider `Cc1cc(-c2ccccc2)cc(C(=O)N[C@@H](C#N)C2CCCCC2)c1F` [Compound I-257], for which the IC50 in experiment [1] and in experiment [2] was greater than 100 µM in each case.
As to `CNC(=O)c1cccc(-c2cc(C)c(F)c(C(=O)NNS(=O)(=O)c3ccccc3)c2)c1` [Compound I-415], the IC50 in experiment [1] was no more than 10 µM; in experiment [2], 10 to 50 µM.
As for `Cc1cc(-c2ccccc2)cc(C(=O)NNS(=O)(=O)CC2CCCN(C(=O)C(C)(C)C)C2)c1F` (stereo not drawn) [Compound I-281], the IC50 in experiment [1] and in experiment [2] was no more than 10 µM each time.
Take `Cc1cc(-c2ccccc2)cc(C(=O)NNS(=O)(=O)C2CCN(C(=O)C(C)C)CC2)c1F` [Compound I-108]: the IC50 in experiment [1] is 10 to 50 µM; in experiment [2] it was no more than 10 µM.
Consider `CCS(=O)(=O)NNC(=O)c1cc(-c2ccccc2)cc(C)c1F` [Compound I-2], for which the IC50 in experiment [1] and in experiment [2] was 10 to 50 µM in each case.
Turning to `Cc1cc(-c2ccccc2)cc(C(=O)NNS(=O)(=O)C2CN(C(=O)C(C)C)C2)c1F` [Compound I-114], the values for the IC50 in experiment [1] and in experiment [2] were 10 to 50 µM and greater than 100 µM, respectively.
Take `Nc1ccc(-c2cc(Cl)c(F)c(C(=O)NNS(=O)(=O)C3CCCCC3)c2)cc1` [Compound I-463]: the half-maximal inhibitory concentration (IC50) in experiment [1] is greater than 100 µM; in experiment [2], no more than 10 µM.
Turning to `COc1cccc(S(=O)(=O)NNC(=O)c2cc(-c3ccccc3)cc(C)c2F)c1` [Compound I-232], the IC50 in experiment [1] and in experiment [2] was no more than 10 µM in each case.
Take `Cc1cc(-c2cc(F)cc(F)c2)cc(C(=O)NNS(=O)(=O)CC2CCCCC2)c1F` [Compound I-355]: the IC50 in experiment [1] and in experiment [2] was 10 to 50 µM each time.
Turning to `Cc1c(-c2ccccc2)ccc(F)c1C(=O)NNS(=O)(=O)c1ccc2ccccc2c1` [Compound I-240], the IC50 in experiment [1] and in experiment [2] was 10 to 50 µM in each case.
Consider `Cc1cc(-c2cccc(Cl)c2F)cc(C(=O)NNS(=O)(=O)C2CCCCC2)c1F` [Compound I-376], for which the IC50 in experiment [1] and in experiment [2] was 10 to 50 µM in each case.
As for `CCNC(=O)c1cc(Cl)c(F)c(C(=O)NNS(=O)(=O)C2CCCCC2)c1` [Compound I-472], the IC50 in experiment [1] and in experiment [2] was greater than 100 µM each time.
With `Cc1cc(-c2cccc(Cl)c2)cc(C(=O)NNS(=O)(=O)C2CCCCC2)c1F` [Compound I-358], the half-maximal inhibitory concentration (IC50) in experiment [1] is 10 to 50 µM; in experiment [2], no more than 10 µM.
As for `Cc1cc(-c2ccccc2)cc(C(=O)NNS(=O)(=O)CC2CCNC2)c1F` (stereo not drawn) [Compound I-320], the IC50 in experiment [1] and in experiment [2] was 10 to 50 µM in each case.
As to `Cc1cc(-c2ccccc2)cc(C(=O)NNS(=O)(=O)C2CN(C(=O)OCc3ccccc3)C2)c1F` [Compound I-121, Benzyl 3-((2-(4-fluoro-5-methyl-[1,1′-biphenyl]-3-carbonyl)hydrazinyl)sulfonyl)azetidine-1-carboxylate], the IC50 in experiment [1] and in experiment [2] was 10 to 50 µM each time.
In the case of `CC(C)C(Cc1ccccc1)C(=O)NNS(=O)(=O)c1ccccc1` (stereo not drawn) [Compound I-260], the IC50 in experiment [1] and in experiment [2] was greater than 100 µM each time.
With `O=C(NNS(=O)(=O)c1ccccc1)c1cc(Cl)ccc1F` [Compound I-153], the IC50 in experiment [1] is no more than 10 µM; in experiment [2], 10 to 50 µM.
Turning to `C=CCn1nc(NNS(=O)(=O)c2ccccc2)c2ccccc21` [Compound I-290], the IC50 in experiment [1] and in experiment [2] was greater than 100 µM in each case.
For the molecule `O=C(NNS(=O)(=O)c1cccc(-c2ccccc2)c1)c1ccccc1` [Compound I-521], the 50% inhibitory concentration (IC50) in experiment [1] and in experiment [2] was greater than 100 µM in each case.
As to `O=C(NNS(=O)(=O)C1CCCCC1)c1cc(-c2ccc(O)cc2)cc(Cl)c1F` [Compound I-460], the IC50 was 10 to 50 µM in experiment [1] and no more than 10 µM in experiment [2].
The matching figures for `O=C(NNS(=O)(=O)C1CCOCC1)c1cc(CN2CCOCC2)cc(Cl)c1F` [Compound I-448]: greater than 100 µM and greater than 100 µM.
The matching figures for `Cc1cc(-c2ccccc2)cc(C(=O)NNS(=O)(=O)c2cccc(O)c2)c1F` [Compound I-235]: no more than 10 µM and no more than 10 µM.
Consider `COc1ccccc1S(=O)(=O)NNC(=O)c1c(F)ccc(-c2ccccc2)c1C` [Compound I-237], for which the 50% inhibitory concentration (IC50) in experiment [1] is 50 to 100 µM; in experiment [2] it was greater than 100 µM.
As for `COc1ccc(Cn2cnc3c(C(=O)NNS(=O)(=O)c4ccccc4)cc(-c4ccccc4)cc32)cc1` [Compound I-248], the concentration for half-maximal inhibition (IC50) in experiment [1] is 10 to 50 µM; in experiment [2], 50 to 100 µM.
On to `COCCC(=O)N1CCC(S(=O)(=O)NNC(=O)c2cc(-c3ccccc3)cc(C)c2F)C1` (stereo not drawn) [Compound I-106], for which the IC50 in experiment [1] and in experiment [2] was 10 to 50 µM each time.
As to `CCS(=O)(=O)N1CCCC(CS(=O)(=O)NNC(=O)c2cc(-c3cccc(C)c3)cc(Cl)c2F)C1` (stereo not drawn) [Compound I-511], the IC50 is greater than 100 µM in experiment [1] and no more than 10 µM in experiment [2].
For `Cc1cc(-c2cccc(F)c2Cl)cc(C(=O)NNS(=O)(=O)CC2CCCCC2)c1F` [Compound I-398] the same measures were 10 to 50 µM and 50 to 100 µM.
`Cc1cc(-c2cccc(F)c2)cc(C(=O)NNS(=O)(=O)CC2CN(C(=O)OC(C)(C)C)CCO2)c1F` (stereo not drawn) [Compound I-425]: the IC50 in experiment [1] and in experiment [2] was no more than 10 µM in each case.
As to `Cc1cc(C2CCN(C)CC2)cc(C(=O)NNS(=O)(=O)C2CCCCC2)c1F` [Compound I-338], the IC50 in experiment [1] and in experiment [2] was greater than 100 µM throughout.
`O=C(NNS(=O)(=O)c1ccccc1)c1c(F)ccc(-c2ccccn2)c1F` [Compound I-132]: the 50% inhibitory concentration (IC50) in experiment [1] was no more than 10 µM; in experiment [2] it was 50 to 100 µM.
Take `Cc1c(-c2ccccc2)ccc(Cl)c1C(=O)NNS(=O)(=O)C1CCCCC1` [Compound I-308]: the figures for the IC50 in experiment [1] and in experiment [2] were greater than 100 µM and 50 to 100 µM, respectively.
Turning to `Cc1cc(-c2ccccc2)cc(C(=O)NNS(=O)(=O)CC2CN(C(=O)OC(C)(C)C)CCO2)c1F` (stereo not drawn) [Compound I-424], the IC50 in experiment [1] and in experiment [2] was no more than 10 µM each time.
For `Cc1cc(-c2ccccc2)cc(C(=O)NNS(=O)(=O)C2CN(Cc3ccccc3)C2)c1F` [Compound I-61], the IC50 in experiment [1] was 10 to 50 µM; in experiment [2] it was greater than 100 µM.
In the case of `Cc1cccc(F)c1C(=O)NNS(=O)(=O)c1ccccc1` [Compound I-135], the IC50 in experiment [1] and in experiment [2] was greater than 100 µM in each case.
`Cc1cc(-c2cccc(F)c2)cc(C(=O)NNS(=O)(=O)C2CCCCC2)c1F` [Compound I-323]: the IC50 in experiment [1] and in experiment [2] was no more than 10 µM each time.
Turning to `O=C(NNS(=O)(=O)c1ccccc1)c1c(F)ccc(-c2ncc[nH]2)c1F` [Compound I-264], the IC50 in experiment [1] is 50 to 100 µM; in experiment [2], greater than 100 µM.
Regarding `Cc1cc(-c2cccc(C(=O)N(C)C)c2)cc(C(=O)NNS(=O)(=O)CC2CCCCC2)c1F` [Compound I-374], the concentration for half-maximal inhibition (IC50) in experiment [1] and in experiment [2] was 10 to 50 µM each time.
`Cc1c(-c2ccccc2)ccc(F)c1C(=O)NNC(=O)c1ccccc1` [Compound I-171]: the IC50 in experiment [1] and in experiment [2] was greater than 100 µM each time.
Take `Cc1cc(-c2ccccc2)cc(C(=O)NNS(=O)(=O)C2CN(C(=O)OC(C)(C)C)C2)c1F` [Compound I-119, tert-Butyl 3-((2-(4-fluoro-5-methyl-[1,1′-biphenyl]-3-carbonyl)hydrazinyl)sulfonyl)azetidine-1-carboxylate]: the IC50 in experiment [1] and in experiment [2] was 10 to 50 µM each time.
For `Cc1cc(-c2ccccc2)cc(C(=O)NNS(=O)(=O)c2ccc(CO)cc2)c1F` [Compound I-147], the values for the IC50 in experiment [1] and in experiment [2] were no more than 10 µM and 10 to 50 µM, respectively.
Regarding `O=C(NNS(=O)(=O)C1CCOCC1)c1cc(-c2cccc(CO)c2)cc(Cl)c1F` [Compound I-482], the IC50 in experiment [1] and in experiment [2] was 10 to 50 µM throughout.
Take `CCC(=O)N1CC(S(=O)(=O)NNC(=O)c2cc(-c3ccccc3)cc(C)c2F)C1` [Compound I-113]: the IC50 in experiment [1] is 10 to 50 µM; in experiment [2] it was 50 to 100 µM.
For `Cc1c(-c2ccccc2)ccc(F)c1C(=O)NNS(=O)(=O)C1CCC1` [Compound I-243] the same measures were greater than 100 µM and greater than 100 µM.
As to `COCCC(=O)N1CC(S(=O)(=O)NNC(=O)c2cc(-c3ccccc3)cc(C)c2F)C1` [Compound I-115], the results for the IC50 in experiment [1] and in experiment [2] were 10 to 50 µM and 50 to 100 µM, respectively.

The IC50 is the concentration needed to halve the response being measured.
